We go through three molecules from paper PMC7887068 (Peptides, 2021).

Where two headings read alike, the source gives them in different places.

One data set has as its system ACE2. The settings on record: read-out: half maximum inhibitory concentration (IC50); cited from earlier work.
Data set [1] deals with T1, recombinant human ACE2 (rhACE2) (Homo sapiens, UniProt Q9BYF1). Description: MLN-4760 inhibition of rhACE2 metabolism of angiotensin peptides. The class given is biochemical.
The target of data set [2] is T1, recombinant human ACE2 (rhACE2). Description: Zinc inhibition of rhACE2 metabolism of Ang II to Ang 1–7. The format is biochemical.
In data set [3] the test system is Human neutrophil collagenase (matrix metalloproteinase 8, MMP8). The settings on record: 10 mM zinc; activity increases up to 100 μM zinc; cited from earlier work.
Data set [4] addresses T1, recombinant human ACE2 (rhACE2). The settings on record: pH 7.0.
In data set [5] the test system is CC[C@H](C)[C@H](NC(=O)[C@H](Cc1ccc(O)cc1)NC(=O)[C@@H](NC(=O)[C@H](CCCNC(=N)N)NC(=O)[C@@H](N)CC(=O)O)C(C)C)C(=O)N[C@@H](Cc1cnc[nH]1)C(=O)N1CCC[C@H]1C(=O)N[C@@H](Cc1ccccc1)C(=O)O. The format is biochemical, human. The settings on record: other: average of the two series (Tables 2 and 3), Ang II to Ang 1–7.

The term inhibition denotes the drop in the measured response relative to a control, in per cent. Usually Km stands for the substrate concentration at which the rate is half of its maximum.

T1 sequence (Q9BYF1 18-740 limits assumed): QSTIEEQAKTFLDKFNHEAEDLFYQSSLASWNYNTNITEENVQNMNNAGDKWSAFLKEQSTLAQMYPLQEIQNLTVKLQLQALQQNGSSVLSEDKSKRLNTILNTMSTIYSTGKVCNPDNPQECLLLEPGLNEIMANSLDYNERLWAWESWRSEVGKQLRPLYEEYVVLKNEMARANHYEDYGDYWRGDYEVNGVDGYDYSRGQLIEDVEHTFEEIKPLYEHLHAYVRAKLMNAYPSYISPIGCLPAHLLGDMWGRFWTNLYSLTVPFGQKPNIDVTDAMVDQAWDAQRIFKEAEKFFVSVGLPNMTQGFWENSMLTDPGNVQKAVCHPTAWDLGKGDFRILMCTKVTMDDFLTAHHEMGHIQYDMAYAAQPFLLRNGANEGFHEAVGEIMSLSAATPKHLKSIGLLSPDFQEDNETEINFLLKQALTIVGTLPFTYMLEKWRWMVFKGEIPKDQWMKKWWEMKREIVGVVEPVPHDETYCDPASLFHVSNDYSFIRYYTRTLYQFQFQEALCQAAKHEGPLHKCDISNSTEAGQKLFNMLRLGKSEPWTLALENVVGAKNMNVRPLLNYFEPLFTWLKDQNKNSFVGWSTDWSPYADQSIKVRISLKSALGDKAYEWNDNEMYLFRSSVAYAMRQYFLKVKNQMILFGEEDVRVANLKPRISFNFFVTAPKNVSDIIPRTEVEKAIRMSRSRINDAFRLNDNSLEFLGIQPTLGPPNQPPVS

For `CC(C)C[C@H](N[C@@H](Cc1cncn1Cc1cc(Cl)cc(Cl)c1)C(=O)O)C(=O)O` [MLN-4760], the IC50 with ACE2 is 0.0004 µM. The “inhibition of metabolism of Ang II to Ang 1–7” value in data set [1] (1 μM MLN-4760) is listed as “nearly all”. In data set [1] (read-out: inhibition of rhACE2 activity), the inhibition at 1 µM was about 90%.

For `CC(=O)[O-].CC(=O)[O-].[Zn+2]` [zinc, zinc acetate], in data set [2] (1 mM zinc), the “inhibition of ACE2 activity” value is listed as “completely”. For the same molecule, the IC50 in data set [2] (read-out: IC50 for inhibition of rhACE2 metabolism of Ang II to Ang 1–7, zinc 1 to 1000 μM, 100 μM Ang II, rhACE2 48.4 ng/ml (569 pM), 50 mM Hepes, 100 mM NaCl, pH 7.0, 30 min, 37°C, mean ± SEM, n=2) turned out to be 69.1 ± 1.1 µM. The collagenase activity remaining in data set [3] is given as ~ 20%. The “Log IC50 for inhibition of rhACE2 metabolism of Mca-APK(dnp)” value in data set [4] (HEPES buffer) is listed as −3.77; in data set [4] (MES buffer) it was −3.85; in data set [4] (Tris buffer) it was −3.82.

“recombinant human ACE2 (rhACE2) (Homo sapiens)”: in data set [5], the Michaelis constant (Km) amounted to 8.47 µM and the kcat/Km was 1.02 μM^−1,sec^−1.
